Source: patent publication EP4722207A1, “OXOISOINDOLINYL-SUBSTITUTED TETRAHYDROPYRIMIDINEDIONE DERIVATIVE AND USE THEREOF” (Gluetacs Therapeutics (Shanghai) Co., Ltd., priority 2023, dated 2024)

What was measured:
Format in all cases: cell-based
Conditions in all cases: 24 hours of compound treatment, 50 nM and 500 nM
[1] = target: T1, WEE1 (Homo sapiens, UniProt P30291+Q96SW2); experiment: Western-blot assay, substrate protein degradation in hPBMCs: WEE1
T1 construct: effects of the compounds of the present disclosure on the expression of target proteins in cells; endogenous in cells; host or cells: human PBMCs (hPBMCs)

[2] = target: T2, IKZF1 (Homo sapiens, UniProt Q13422+Q96SW2); experiment: Western-blot assay, substrate protein degradation in hPBMCs: IKZF1
T2 construct: effects of the compounds of the present disclosure on the expression of target proteins in cells; endogenous in cells; host or cells: human PBMCs (hPBMCs)

[3] = target: T3, IKZF2 (Homo sapiens, UniProt Q96SW2+Q9UKS7); experiment: Western-blot assay, substrate protein degradation in hPBMCs: IKZF2
T3 construct: effects of the compounds of the present disclosure on the expression of target proteins in cells; endogenous in cells; host or cells: human PBMCs (hPBMCs)

[4] = target: T4, IKZF3 (Homo sapiens, UniProt Q96SW2+Q9UKT9); experiment: Western-blot assay, substrate protein degradation in hPBMCs: IKZF3
T4 construct: effects of the compounds of the present disclosure on the expression of target proteins in cells; endogenous in cells; host or cells: human PBMCs (hPBMCs)

[5] = target: T5, CK1α (Homo sapiens, UniProt P48729+Q96SW2); experiment: Western-blot assay, substrate protein degradation in hPBMCs: CK1α
T5 construct: effects of the compounds of the present disclosure on the expression of target proteins in cells; endogenous in cells; host or cells: human PBMCs (hPBMCs)

[6] = target: T6, GSPT1 (Homo sapiens, UniProt P15170+Q96SW2); experiment: Western-blot assay, substrate protein degradation in hPBMCs: GSPT1
T6 construct: effects of the compounds of the present disclosure on the expression of target proteins in cells; endogenous in cells; host or cells: human PBMCs (hPBMCs)
T6 sequence (P15170 whole entry): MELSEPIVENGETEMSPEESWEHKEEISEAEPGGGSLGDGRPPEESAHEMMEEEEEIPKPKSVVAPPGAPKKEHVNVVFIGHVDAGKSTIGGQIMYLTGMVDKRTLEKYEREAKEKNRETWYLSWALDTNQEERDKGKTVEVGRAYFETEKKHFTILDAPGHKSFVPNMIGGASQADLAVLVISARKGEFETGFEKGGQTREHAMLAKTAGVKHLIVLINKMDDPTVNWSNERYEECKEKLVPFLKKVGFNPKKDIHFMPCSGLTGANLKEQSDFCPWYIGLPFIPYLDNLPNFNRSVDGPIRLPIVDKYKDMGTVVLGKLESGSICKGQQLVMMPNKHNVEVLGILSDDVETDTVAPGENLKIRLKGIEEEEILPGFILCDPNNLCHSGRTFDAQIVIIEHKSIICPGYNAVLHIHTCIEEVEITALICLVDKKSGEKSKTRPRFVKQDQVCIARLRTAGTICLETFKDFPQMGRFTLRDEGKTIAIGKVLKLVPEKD
T6 sequence (Q96SW2 whole entry): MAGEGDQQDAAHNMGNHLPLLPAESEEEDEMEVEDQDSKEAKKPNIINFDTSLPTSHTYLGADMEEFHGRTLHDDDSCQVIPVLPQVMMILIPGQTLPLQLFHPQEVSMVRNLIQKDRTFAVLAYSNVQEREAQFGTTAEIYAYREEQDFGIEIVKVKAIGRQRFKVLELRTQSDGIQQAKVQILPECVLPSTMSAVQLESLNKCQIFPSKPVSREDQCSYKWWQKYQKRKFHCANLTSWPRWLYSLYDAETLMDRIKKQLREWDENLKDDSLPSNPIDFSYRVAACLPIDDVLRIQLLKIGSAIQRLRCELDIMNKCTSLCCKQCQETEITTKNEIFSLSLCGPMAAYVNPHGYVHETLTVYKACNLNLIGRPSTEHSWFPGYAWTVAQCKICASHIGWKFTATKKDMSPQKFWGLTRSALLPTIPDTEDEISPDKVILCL
T6 sequence (Q16531 whole entry partner): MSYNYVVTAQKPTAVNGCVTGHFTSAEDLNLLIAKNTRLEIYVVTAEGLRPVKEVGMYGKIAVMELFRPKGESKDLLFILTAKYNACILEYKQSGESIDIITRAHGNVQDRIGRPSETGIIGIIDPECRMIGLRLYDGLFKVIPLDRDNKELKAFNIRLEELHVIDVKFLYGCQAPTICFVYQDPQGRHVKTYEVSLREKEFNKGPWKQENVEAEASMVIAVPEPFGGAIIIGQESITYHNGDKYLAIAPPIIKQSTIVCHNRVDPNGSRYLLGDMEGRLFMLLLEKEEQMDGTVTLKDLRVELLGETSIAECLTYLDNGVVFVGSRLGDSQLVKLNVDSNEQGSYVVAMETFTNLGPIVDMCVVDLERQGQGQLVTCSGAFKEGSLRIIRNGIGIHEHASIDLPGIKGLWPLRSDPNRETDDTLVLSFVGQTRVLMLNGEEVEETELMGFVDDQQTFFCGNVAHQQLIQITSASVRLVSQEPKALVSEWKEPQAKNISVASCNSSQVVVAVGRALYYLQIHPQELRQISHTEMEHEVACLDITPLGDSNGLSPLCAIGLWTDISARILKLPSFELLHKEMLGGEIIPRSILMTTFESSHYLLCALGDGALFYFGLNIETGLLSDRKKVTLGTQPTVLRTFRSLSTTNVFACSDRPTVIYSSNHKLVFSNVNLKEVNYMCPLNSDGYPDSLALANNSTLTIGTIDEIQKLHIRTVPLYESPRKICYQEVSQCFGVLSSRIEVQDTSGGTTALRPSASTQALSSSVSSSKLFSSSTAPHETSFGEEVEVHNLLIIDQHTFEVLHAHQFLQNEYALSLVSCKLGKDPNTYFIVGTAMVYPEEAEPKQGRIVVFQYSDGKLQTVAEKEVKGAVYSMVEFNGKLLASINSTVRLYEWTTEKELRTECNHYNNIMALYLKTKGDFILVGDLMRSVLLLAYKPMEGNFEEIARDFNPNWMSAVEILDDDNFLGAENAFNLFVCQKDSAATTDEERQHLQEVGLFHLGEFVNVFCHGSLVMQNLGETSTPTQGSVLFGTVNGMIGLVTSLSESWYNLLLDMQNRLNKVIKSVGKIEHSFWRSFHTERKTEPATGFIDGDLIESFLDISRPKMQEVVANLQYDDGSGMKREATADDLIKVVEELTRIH

T3 sequence (Q9UKS7 whole entry): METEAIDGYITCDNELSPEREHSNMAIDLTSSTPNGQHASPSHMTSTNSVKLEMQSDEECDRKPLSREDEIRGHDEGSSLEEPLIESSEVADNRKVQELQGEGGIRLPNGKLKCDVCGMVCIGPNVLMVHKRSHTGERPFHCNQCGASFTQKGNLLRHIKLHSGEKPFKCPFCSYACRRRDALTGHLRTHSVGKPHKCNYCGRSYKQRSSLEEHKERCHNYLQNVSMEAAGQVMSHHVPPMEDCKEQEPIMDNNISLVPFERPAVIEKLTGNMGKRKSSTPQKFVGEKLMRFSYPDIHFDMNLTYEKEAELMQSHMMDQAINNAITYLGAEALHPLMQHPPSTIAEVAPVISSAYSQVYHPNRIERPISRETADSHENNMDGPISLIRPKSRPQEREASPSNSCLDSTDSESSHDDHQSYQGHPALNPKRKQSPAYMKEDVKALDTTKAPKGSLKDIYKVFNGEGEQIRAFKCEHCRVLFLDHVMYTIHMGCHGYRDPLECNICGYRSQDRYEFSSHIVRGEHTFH
T3 sequence (Q96SW2 whole entry): as the sequence (Q96SW2 whole entry) above
T3 sequence (Q16531 whole entry partner): as the sequence (Q16531 whole entry partner) above
T2 sequence (Q13422 whole entry): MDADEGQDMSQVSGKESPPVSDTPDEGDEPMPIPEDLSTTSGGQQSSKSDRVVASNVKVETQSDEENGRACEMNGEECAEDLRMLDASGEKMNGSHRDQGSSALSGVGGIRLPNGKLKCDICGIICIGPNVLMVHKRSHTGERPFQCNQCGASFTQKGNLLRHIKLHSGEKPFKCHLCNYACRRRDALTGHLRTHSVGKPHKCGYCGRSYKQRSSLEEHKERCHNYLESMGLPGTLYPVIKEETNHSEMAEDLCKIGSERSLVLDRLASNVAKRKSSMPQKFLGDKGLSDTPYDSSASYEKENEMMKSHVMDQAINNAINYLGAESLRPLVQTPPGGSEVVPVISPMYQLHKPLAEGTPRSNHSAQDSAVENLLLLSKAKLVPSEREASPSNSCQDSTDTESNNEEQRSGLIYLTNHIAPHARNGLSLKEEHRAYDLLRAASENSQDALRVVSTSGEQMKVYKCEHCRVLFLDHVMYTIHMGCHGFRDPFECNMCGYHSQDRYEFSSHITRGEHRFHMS
T2 sequence (Q96SW2 whole entry): as the sequence (Q96SW2 whole entry) above
T2 sequence (Q16531 whole entry partner): as the sequence (Q16531 whole entry partner) above
T1 sequence (P30291 whole entry): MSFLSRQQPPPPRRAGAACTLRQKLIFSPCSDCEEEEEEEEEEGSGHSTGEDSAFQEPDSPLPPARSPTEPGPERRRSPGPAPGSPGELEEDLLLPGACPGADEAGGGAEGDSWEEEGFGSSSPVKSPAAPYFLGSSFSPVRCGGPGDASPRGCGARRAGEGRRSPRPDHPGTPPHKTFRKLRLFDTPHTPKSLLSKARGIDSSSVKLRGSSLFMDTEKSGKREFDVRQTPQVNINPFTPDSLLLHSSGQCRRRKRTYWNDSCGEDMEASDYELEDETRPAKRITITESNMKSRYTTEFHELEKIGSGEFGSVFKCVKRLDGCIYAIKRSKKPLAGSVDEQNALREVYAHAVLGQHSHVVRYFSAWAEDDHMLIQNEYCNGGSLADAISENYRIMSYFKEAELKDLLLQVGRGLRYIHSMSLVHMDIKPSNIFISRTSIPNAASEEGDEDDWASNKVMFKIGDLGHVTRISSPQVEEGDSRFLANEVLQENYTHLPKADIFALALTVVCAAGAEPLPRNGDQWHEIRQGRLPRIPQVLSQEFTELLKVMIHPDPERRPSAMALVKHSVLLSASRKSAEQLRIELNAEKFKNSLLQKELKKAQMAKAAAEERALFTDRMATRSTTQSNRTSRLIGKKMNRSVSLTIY
T1 sequence (Q96SW2 whole entry): as the sequence (Q96SW2 whole entry) above
T1 sequence (Q16531 whole entry partner): as the sequence (Q16531 whole entry partner) above
T5 sequence (P48729 whole entry): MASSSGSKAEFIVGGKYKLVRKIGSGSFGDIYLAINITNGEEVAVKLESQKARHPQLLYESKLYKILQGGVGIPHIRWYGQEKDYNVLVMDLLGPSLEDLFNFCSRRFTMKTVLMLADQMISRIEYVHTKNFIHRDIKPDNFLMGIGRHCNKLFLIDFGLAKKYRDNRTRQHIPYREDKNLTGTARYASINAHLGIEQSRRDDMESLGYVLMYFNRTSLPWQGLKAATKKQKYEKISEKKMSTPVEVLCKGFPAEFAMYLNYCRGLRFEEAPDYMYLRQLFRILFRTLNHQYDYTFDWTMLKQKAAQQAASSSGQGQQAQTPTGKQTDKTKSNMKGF
T5 sequence (Q96SW2 whole entry): as the sequence (Q96SW2 whole entry) above
T5 sequence (Q16531 whole entry partner): as the sequence (Q16531 whole entry partner) above

SMILES | substrate protein remaining % WEE1 [1] | substrate protein remaining % IKZF1 [2] | substrate protein remaining % IKZF2 [3] | substrate protein remaining % IKZF3 [4] | substrate protein remaining % CK1α [5] | substrate protein remaining % GSPT1 [6]
O=C1CCN(N2C(=O)c3ccc(CN4CCC(c5ccsc5)CC4)cc3C2=O)C(=O)N1 [GT-07420, 2-(2,4-dioxotetrahydropyrimidin-1(2H)-yl)-5-((4-(thiophen-3-yl)piperidin-1-yl)methyl)isoindoline-1,3-dione] | B (80%< substrate protein remaining %≤ 100%) | B (80%< substrate protein remaining %≤ 100%) | B (80%< substrate protein remaining %≤ 100%) | B (80%< substrate protein remaining %≤ 100%) | A (0% ≤ substrate protein remaining % ≤ 80%) | A (0% ≤ substrate protein remaining % ≤ 80%)
Cc1cc(C2CCN(Cc3ccc4c(c3)C(=O)N(N3CCC(=O)NC3=O)C4=O)CC2)cs1 [GT-07421, 2-(2,4-dioxotetrahydropyrimidin-1(2H)-yl)-5-((4-(5-methylthiophen-3-yl)piperidin-1-yl)methyl)isoindoline-1,3-dione] | B (80%< substrate protein remaining %≤ 100%) | B (80%< substrate protein remaining %≤ 100%) | B (80%< substrate protein remaining %≤ 100%) | B (80%< substrate protein remaining %≤ 100%) | A (0% ≤ substrate protein remaining % ≤ 80%) | A (0% ≤ substrate protein remaining % ≤ 80%)
O=C1CCN(N2C(=O)c3ccc(CN4CCC(c5ccoc5)CC4)cc3C2=O)C(=O)N1 [GT-07422, 2-(2,4-dioxotetrahydropyrimidin-1(2H)-yl)-5-((4-(furan-3-yl)piperidin-1-yl)methyl)isoindoline-1,3-dione] | B (80%< substrate protein remaining %≤ 100%) | B (80%< substrate protein remaining %≤ 100%) | B (80%< substrate protein remaining %≤ 100%) | B (80%< substrate protein remaining %≤ 100%) | A (0% ≤ substrate protein remaining % ≤ 80%) | A (0% ≤ substrate protein remaining % ≤ 80%)
Cc1cc(C2=CCN(Cc3ccc4c(c3)C(=O)N(N3CCC(=O)NC3=O)C4=O)CC2)cs1 [GT-07423, 2-(2,4-dioxotetrahydropyrimidin-1(2H)-yl)-5-((4-(5-methylthiophen-3-yl)-3,6-dihydropyridin-1(2H)-yl)methyl)isoindoline-1,3-dione] | A (0% ≤ substrate protein remaining % ≤ 80%) | B (80%< substrate protein remaining %≤ 100%) | B (80%< substrate protein remaining %≤ 100%) | A (0% ≤ substrate protein remaining % ≤ 80%) | A (0% ≤ substrate protein remaining % ≤ 80%) | A (0% ≤ substrate protein remaining % ≤ 80%)
O=C1CCN(N2C(=O)c3ccc(CN4CCC(c5cccs5)CC4)cc3C2=O)C(=O)N1 [GT-07424, 2-(2,4-dioxotetrahydropyrimidin-1(2H)-yl)-5-((4-(thiophen-2-yl)piperidin-1-yl)methyl)isoindoline-1,3-dione] | A (0% ≤ substrate protein remaining % ≤ 80%) | A (0% ≤ substrate protein remaining % ≤ 80%) | B (80%< substrate protein remaining %≤ 100%) | A (0% ≤ substrate protein remaining % ≤ 80%) | B (80%< substrate protein remaining %≤ 100%) | A (0% ≤ substrate protein remaining % ≤ 80%)
O=C1CCN(N2Cc3cc(CN4C[C@H]5C[C@@H]4CN5c4cccc(Cl)c4Cl)ccc3C2=O)C(=O)N1 [GT-07427, 1-(5-(((1R,4R)-5-(2,3-dichlorophenyl)-2,5-diazabicyclo[2.2.1]heptan-2-yl)methyl)-1-oxoisoindolin-2-yl)dihydropyrimidine-2,4(1H,3H)-dione] | A (0% ≤ substrate protein remaining % ≤ 80%) | A (0% ≤ substrate protein remaining % ≤ 80%) | B (80%< substrate protein remaining %≤ 100%) | B (80%< substrate protein remaining %≤ 100%) | A (0% ≤ substrate protein remaining % ≤ 80%) | A (0% ≤ substrate protein remaining % ≤ 80%)
O=C1CCN(N2Cc3cc(CN4CC5CCC4CN5c4cccc(Cl)c4Cl)ccc3C2=O)C(=O)N1 (stereo not drawn) [GT-07428, 1-(5-((5-(2,3-dichlorophenyl)-2,5-diazabicyclo[2.2.2]octan-2-yl)methyl)-1-oxoisoindolin-2-yl)dihydropyrimidine-2,4(1H,3H)-dione] | B (80%< substrate protein remaining %≤ 100%) | A (0% ≤ substrate protein remaining % ≤ 80%) | B (80%< substrate protein remaining %≤ 100%) | B (80%< substrate protein remaining %≤ 100%) | A (0% ≤ substrate protein remaining % ≤ 80%) | A (0% ≤ substrate protein remaining % ≤ 80%)
O=C1CCN(N2Cc3cc(CN4CC5CCC(C4)N5c4cccc(Cl)c4Cl)ccc3C2=O)C(=O)N1 [GT-07429, 1-(5-((8-(2,3-dichlorophenyl)-3,8-diazabicyclo[3.2.1]octan-3-yl)methyl)-1-oxoisoindolin-2-yl)dihydropyrimidine-2,4(1H,3H)-dione] | B (80%< substrate protein remaining %≤ 100%) | A (0% ≤ substrate protein remaining % ≤ 80%) | B (80%< substrate protein remaining %≤ 100%) | B (80%< substrate protein remaining %≤ 100%) | B (80%< substrate protein remaining %≤ 100%) | B (80%< substrate protein remaining %≤ 100%)
O=C1CCN(N2Cc3cc(CN4C5CCC4CN(c4cccc(Cl)c4Cl)C5)ccc3C2=O)C(=O)N1 [GT-07430, 1-(5-((3-(2,3-dichlorophenyl)-3,8-diazabicyclo[3.2.1]octan-8-yl)methyl)-1-oxoisoindolin-2-yl)dihydropyrimidine-2,4(1H,3H)-dione] | B (80%< substrate protein remaining %≤ 100%) | A (0% ≤ substrate protein remaining % ≤ 80%) | B (80%< substrate protein remaining %≤ 100%) | B (80%< substrate protein remaining %≤ 100%) | A (0% ≤ substrate protein remaining % ≤ 80%) | A (0% ≤ substrate protein remaining % ≤ 80%)
O=C1CCN(N2Cc3cc(CN4CCCN(c5cccc(Cl)c5Cl)CC4)ccc3C2=O)C(=O)N1 [GT-07431, 1-(5-((4-(2,3-dichlorophenyl)-1,4-diazepan-1-yl)methyl)-1-oxoisoindolin-2-yl)dihydropyrimidine-2,4(1H,3H)-dione] | B (80%< substrate protein remaining %≤ 100%) | A (0% ≤ substrate protein remaining % ≤ 80%) | B (80%< substrate protein remaining %≤ 100%) | B (80%< substrate protein remaining %≤ 100%) | A (0% ≤ substrate protein remaining % ≤ 80%) | B (80%< substrate protein remaining %≤ 100%)
CC1CN(C(c2ccccc2)c2ccccc2)CC(C)N1Cc1ccc2c(c1)CN(N1CCC(=O)NC1=O)C2=O (stereo not drawn) [GT-07433, 1-(5-((4-benzhydryl-2,6-dimethylpiperazin-1-yl)methyl)-1-oxoisoindolin-2-yl)dihydropyrimidine-2,4(1H,3H)-dione] | B (80%< substrate protein remaining %≤ 100%) | B (80%< substrate protein remaining %≤ 100%) | A (0% ≤ substrate protein remaining % ≤ 80%) | B (80%< substrate protein remaining %≤ 100%) | A (0% ≤ substrate protein remaining % ≤ 80%) | B (80%< substrate protein remaining %≤ 100%)
O=C1CCN(N2C(=O)c3ccc(CN4CC5CC(C4)N5c4cccc(Cl)c4Cl)cc3C2=O)C(=O)N1 [GT-07434, 5-((6-(2,3-dichlorophenyl)-3,6-diazabicyclo[3.1.1]heptan-3-yl)methyl)-2-(2,4-dioxotetrahydropyrimidin-1(2H)-yl)isoindoline-1,3-dione] | B (80%< substrate protein remaining %≤ 100%) | B (80%< substrate protein remaining %≤ 100%) | B (80%< substrate protein remaining %≤ 100%) | B (80%< substrate protein remaining %≤ 100%) | A (0% ≤ substrate protein remaining % ≤ 80%) | B (80%< substrate protein remaining %≤ 100%)
O=C1CCN(N2C(=O)c3ccc(CN4C[C@H]5C[C@@H]4CN5c4cccc(Cl)c4Cl)cc3C2=O)C(=O)N1 [GT-07435, 5-(((1R,4R)-5-(2,3-dichlorophenyl)-2,5-diazabicyclo[2.2.1]heptan-2-yl)methyl)-2-(2,4-dioxotetrahydropyrimidin-1(2H)-yl)isoindoline-1,3-dione] | B (80%< substrate protein remaining %≤ 100%) | B (80%< substrate protein remaining %≤ 100%) | B (80%< substrate protein remaining %≤ 100%) | B (80%< substrate protein remaining %≤ 100%) | A (0% ≤ substrate protein remaining % ≤ 80%) | B (80%< substrate protein remaining %≤ 100%)
